Tests used:
EGFR (human) [1] = biological target: EGFR (human) (UniProt P00533); conditions: A431
EGFR (mouse) = EGFR (mouse) (UniProt P00533); conditions: balb/mk cells
EGFR (human) [2] = biological target: EGFR (human) (UniProt P00533); conditions: a431
EGFR (human) [3] = biological target: EGFR (human) (UniProt P00533); conditions: for inhibition: a431, concentration not given here
EGFR [4] = biological target: EGFR (UniProt P00533)
EGFR [5] = biological target: EGFR (UniProt P00533); remark: listed apart in the source
EGFR [6] = biological target: EGFR (UniProt P00533); remark: listed apart in the source
EGFR (human) [7] = biological target: EGFR (human) (UniProt P00533); conditions: A431; remark: listed apart in the source

Sequence of EGFR (P00533 whole entry, looked up): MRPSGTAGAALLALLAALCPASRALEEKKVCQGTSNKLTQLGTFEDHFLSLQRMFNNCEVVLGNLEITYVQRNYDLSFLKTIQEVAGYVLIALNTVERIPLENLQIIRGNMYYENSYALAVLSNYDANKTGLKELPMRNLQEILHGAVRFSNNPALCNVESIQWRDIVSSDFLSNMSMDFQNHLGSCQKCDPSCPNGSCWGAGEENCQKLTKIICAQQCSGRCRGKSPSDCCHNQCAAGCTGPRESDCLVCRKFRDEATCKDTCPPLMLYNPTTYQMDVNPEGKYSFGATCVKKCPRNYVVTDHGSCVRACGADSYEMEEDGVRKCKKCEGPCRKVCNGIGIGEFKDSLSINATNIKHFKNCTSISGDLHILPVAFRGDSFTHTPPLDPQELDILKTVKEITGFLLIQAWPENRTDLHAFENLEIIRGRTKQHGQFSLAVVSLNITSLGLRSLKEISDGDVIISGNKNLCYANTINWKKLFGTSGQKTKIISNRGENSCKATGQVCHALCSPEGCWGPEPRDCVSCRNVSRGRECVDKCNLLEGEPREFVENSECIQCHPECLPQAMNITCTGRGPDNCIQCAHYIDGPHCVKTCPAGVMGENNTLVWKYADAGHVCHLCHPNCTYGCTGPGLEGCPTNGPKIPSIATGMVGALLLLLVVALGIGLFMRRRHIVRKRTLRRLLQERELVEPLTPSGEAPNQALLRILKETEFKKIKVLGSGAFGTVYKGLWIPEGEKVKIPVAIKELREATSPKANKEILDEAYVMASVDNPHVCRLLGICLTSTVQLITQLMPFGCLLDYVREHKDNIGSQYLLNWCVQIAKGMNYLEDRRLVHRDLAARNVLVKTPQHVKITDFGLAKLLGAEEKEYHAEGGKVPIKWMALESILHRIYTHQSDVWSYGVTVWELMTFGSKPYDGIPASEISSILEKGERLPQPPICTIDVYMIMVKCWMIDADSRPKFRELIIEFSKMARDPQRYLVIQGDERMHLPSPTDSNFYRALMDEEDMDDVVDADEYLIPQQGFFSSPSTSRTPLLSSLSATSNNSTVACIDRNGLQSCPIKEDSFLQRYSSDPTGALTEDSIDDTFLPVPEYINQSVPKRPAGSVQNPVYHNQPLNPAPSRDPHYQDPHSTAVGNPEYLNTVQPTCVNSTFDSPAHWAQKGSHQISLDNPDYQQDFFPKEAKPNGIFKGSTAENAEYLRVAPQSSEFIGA
Sequence of EGFR (human) (P00533 whole entry, looked up): as above

| IC50 (EGFR (human) [1]) | IC50 (EGFR (mouse)) | IC50 (EGFR (human) [2]) | inhibition (EGFR (human) [3]) | Structure (SMILES) | other results |
| --- | --- | --- | --- | --- | --- |
| > 50 µM | > 50 µM | > 50 µM | 0% | C=CCN1C(=O)C(C)SC1=NN=C1SCC(=O)N1C (centres undefined) |  |
| 6 µM | 1.03 µM | 1.51 µM |  | C=CCN1C(=O)C(=C)SC1=NN=C1SCC(=O)N1C |  |
| > 100 µM | > 50 µM | > 50 µM | 0% | C=CCN1C(=O)C(CC(=O)O)SC1=NN=C1SCC(=O)N1C (centres undefined) |  |
| 2 µM | 0.98 µM | 1.63 µM |  | C=C(C)CN1C(=O)C(CN(C)C)SC1=NN=C1SCC(=O)N1C (centres undefined) |  |
| 9 µM |  |  |  | CCOc1cc(/C=C(/C#N)C(N)=O)cc(Cc2ccccc2)c1O | IC50 (EGFR [4]): 1 µM; Ki (EGFR [4]): 2.1 µM |
| > 100 µM | > 50 µM | > 50 µM | 0% | C=C(C)CN1C(=O)C(O)SC1=NN=C1SCC(=O)N1C (centres undefined) |  |
| 100 µM | > 50 µM | > 50 µM | 0% | C=C(C)CN1C(=O)C(OS(=O)(=O)O)SC1=NN=C1SCC(=O)N1C (centres undefined) |  |
| > 50 µM | > 50 µM | 41 µM | 0% | C=C(C)CN1C(=O)C(CO)SC1=NN=C1SCC(=O)N1C (centres undefined) |  |
| 1 µM | 1 µM | 1.55 µM |  | C=C(C)CN1C(=O)C(=C)SC1=NN=C1SCC(=O)N1C | IC50 (EGFR (human) [7]): 5 µM; IC50 (EGFR (human) [3]; a431): 12.5 to 25 µM |
| > 50 µM | > 50 µM | > 50 µM | 0% | C=C(C)CN1C(=O)CSC1=NN=C1SCC(=O)N1C |  |
|  |  |  |  | CC(=S)N/C(C#N)=C/c1ccc(O)c(O)c1 | IC50 (EGFR [6]): 2.4 µM; Ki (EGFR [6]): 0.85 µM |
| > 50 µM | > 50 µM | > 50 µM | 0% | C=C(C)CN1C(=O)C(C)SC1=NN=C1SCC(=O)N1C (centres undefined) |  |

| Structure (SMILES) | IC50 (EGFR (human) [1]) | IC50 (EGFR (mouse)) | IC50 (EGFR (human) [2]) | inhibition (EGFR (human) [3]) | other results |
| --- | --- | --- | --- | --- | --- |
| O=CN/C=C/c1cc(O)ccc1O | 12.7 µM |  |  |  | Ki (EGFR [5]): 6 µM |
| N#CC(C#N)=Cc1cc(O)cc(O)c1 | 42 µM |  |  |  | IC50 (EGFR [6]): 35 µM; Ki (EGFR [6]): 11 µM |

— the Kinase Knowledgebase extract (Sharma et al. 2016)
